Data from patent publication US9109048B2, “Inhibition of tumor growth” (priority 1998, dated 2015).
Read-outs that look alike come from different tables or passages of the source. Square brackets hold non-standard residues; d marks the D form. Bip = N[C@@H](Cc1ccc(-c2ccccc2)cc1)C(=O)O

What was measured:
Meth A fibrosarcoma = test: Tumor regression, murine Meth A fibrosarcoma; type: in vivo, mice
Procedure: Specific pathogen-free CB6F1 (Balb/c×C57 BL/6) female mice of about 8 weeks of age were obtained from Charles River (Germany). The mice were kept on standard laboratory chow and water. Tumor bearing mice were serologically screened for viral (LDH, CMV) and mycoplasmic infection and in all cases tested negative.
After a single inoculation of 5×10^7 viable Meth A cells, different LF peptides were injected intratumorally (LFB-14-31, LFB 17-31 Pmc, 500 μg in a 50 μl dose; LFB 17-31, 1000 μg in a 50 μl dose), on day 7 and day 10. LFB 14-31 was also injected intraperitoneally (PBI), 500 μg/ml. Saline only was injected in the control mice (50 μl) (K1,K2,K3). The tumor diameter (mean of transversal and longitudinal) were measured with an electronic calipper.

[1] = system: Staphylococcus aureus ATCC 25923; test: MIC (minimum inhibitory concentration) test, microdilution; type: cell-based
Summary of the method: (§1)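 Microdilution MIC; 1% Bacto Peptone water; inoculum 2×10^6 CFU/ml, mid-log cells; triplicates; peptide levels verified by HPLC before and after addition to wells.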

[2] = system: Escherichia coli ATCC 25922; test: as above; type: cell-based
Summary of the method: as §1

[3] = system: human promyelotic leukemia cell line HL 60; test: Cytotoxicity on HL 60 cells, MTT; type: cell-based
Procedure: HL 60 cells, 1×10^4 were incubated with peptides 50, 30, 20, 10, 5, 1 μg, 1000-20 μg/ml in 2 hours and coloured with MTT;

[4] = system: A20 B-cell lymphoma tumor; test: Re-inoculation of A20 cells after successful peptide treatment; type: in vivo, Balb/c mice; conditions: no further administration of peptides
From the text: b) Mice in which a A20 B-cell lymphoblast tumor had successfully been eradicated as described above were re-inoculated with 5×10^6 cells of A20 B-cell lymphoma tumor. Untreated mice served as a negative control. No further administration of peptides or any other anti-tumor agents took place.

[5] = system: Meth A cells (murine sarcoma cell line); test: Cytotoxicity on Meth A cells, MTT method
Procedure: Peptide solutions (0.1 ml) were added and the plates incubated at 37° C. for 30 minutes, 4 hours or 24 hours. The cytotoxicity was measured using the MTT method (Mosmann et al., J. Immunol. (1986) 136, 2348-2357).
Cells in the growth phase were harvested and washed in fresh medium and injected subcutaneously into the abdominal region of the mice.
The cytotoxic effect of the peptides on different murine and human tumor cells were measured using the MTT method (Mosmann et al., J. Immunol. (1986) 136, 2348-2357).
MTT is a soluble tetrazolium salt yielding a yellow solution when prepared in media or salt solutions lacking phenol red. Dissolved MTT is converted to an insoluble purple formazan by cleavage of the tetrazolium ring by dehydrogenase enzymes. This water insoluble formazan can be solubilized using isopropanol or other solvents and the dissolved material is measured spectrophotometrically. The absorbance was measured as a function of concentration of converted dye.
Cells were maintained in […] medium containing 10% FBS, 1% L-glutamine and 0.1% penicillin and streptomycin. Cells to be used in the assay were grown to confluency, trypsinated and split to single cell suspension, counted and centrifuged at 1500 rpm for 10 min. […][…] of cell suspension was transferred to each well on a 96-well microtiter plate. The cells were stimulated by adding […] of various concentrations of peptides diluted with assay medium to each well. The final concentrations of peptide were for example: 5, 10, 20, 40, 60, 80, 100, and 200 mg/ml. […] As a negative control only medium was added to the cells, and as a positive control (100% killing) 1% triton X-100 was added. Following an incubation period of 4 h., 20 ml MTT dissolved in PBS at a concentration of 5 mg/ml was added to each well, and the plate was incubated further for 2 h. 130 ml of the supernatant were then removed and […] acid alcohol (0.04-0.1 N HCl in isopropanol) added to each well to dissolve the dark blue crystals. The plate was placed on a shaker for 1 h and read spectrophotometrically at 590 nm in a microtiterplate reader using the Softmaxâ program.

Meth A tumor cells = test: Reinoculation of Meth A cells after successful treatment; type: in vivo, mice; conditions: reinoculation 1 month after successful treatment, no further treatment
C26 colon carcinoma = test: Murine C26 colon carcinoma model; type: in vivo, Balb/c mice
Procedure: The antitumoral activity of the peptide, Ad-LFB 14-31 A2,3,6,10,17,F7,R4,K11,L14-NH2, (NDDO1) was tested in a murine C26 colon carcinoma model established in syngenic Balb/c mice. C26 cells (5×10^6 cells in 50 μl) cells were inoculated subcutaneously on the abdomen of the mice (3 animals) and grown into proper size (20-30 mm^2) before treatment start. At day 7 the tumors were treated intra-tumorally with 0.5 mg/50 μl peptide once a day for three consecutive days and the progression was followed. […] In this mouse C26 tumor cells (5×10^6 cells in 50 μl) were re-inoculated subcutaneously three weeks after peptide treatment.

[6] = system: A20 B-cell lymphoblastoma; test: Adoptive transfer of spleen cells from cured mice; type: in vivo, Balb/c mice; conditions: donors cured with the peptide; versus naive donors
Procedure: Syngenic Balb/c mice were selected as a model system to investigate the long-term anti-tumor immunity conferred by an initial treatment with a lytic peptide (H2N-WKKWdipKKWK-COOH—Mod 39 (SEQ ID NO: 42)) against A20 B-cell lymphoblastoma. Tumour cells (5×10^6) were inoculated subcutaneously on the abdomen of the mice and grown into proper size (20-30 mm^2) before treatment start. The mice were treated intra-tumorally with 0.5 mg/50 μl peptide once a day for three consecutive days and the progression was followed. Mice that were successfully treated were selected as donors (treated donor) for adoptive transfer of spleen cells, 3 weeks after tumor eradication.
Day 1—Naive acceptor mice were subjected to a Total Body Irradiation (TBI) of 500 cGy in preparation for receiving adoptive transfer of immune cells from spleen donors.
Day 2—Single-cell suspensions of spleenocytes depleted of red blood cells from treated donor mice and naïve mice were prepared as previously described (Ward, B. A. et al., J. Immunology Aughust 1988, vol 141 p 1047), except that sterile H2O was used instead of ammonium chloride to eliminate red blood cells.
Donor spleen cells (approximately 40 million) were injected i.v. into the tail vein of acceptor mice according to the methods described in Bogen B. et al., Eur J Immunology, May 1983, vol 13(5), pages 353-359. […]

[7] = type: physicochemical
From the text: Peptide W3714, with three additional tryptophan residues (a total of five tryptophan residues in the peptide), has decreased activity. […] This has been physically observed during MIC testing procedures when the peptide tended to precipitate at high concentrations.

[8] = injected intratumorally on day 7 and day 10
[9] = Table 1, synthetic lactoferricins

Compound: CSCC[C@H](NC(=O)[C@H](CCCNC(=N)N)NC(=O)[C@H](Cc1c[nH]c2ccccc12)NC(=O)[C@H](CCC(N)=O)NC(=O)[C@H](Cc1c[nH]c2ccccc12)NC(=O)[C@H](CCCNC(=N)N)NC(=O)[C@H](CCCNC(=N)N)NC(=O)[C@H](CSCNC(C)=O)NC(=O)[C@H](CCCCN)NC(=O)[C@H](Cc1ccccc1)NC(=O)[C@H](Cc1c[nH]c2ccccc12)NC(=O)[C@H](CCC(=O)O)NC(=O)[C@@H]1CCCN1)C(=O)N[C@@H](CCCCN)C(=O)N[C@@H](CCCCN)C(=O)N[C@@H](CC(C)C)C(=O)NCC(=O)N[C@@H](C)C(=O)O [LFB 14-31]
- effect on Meth A tumors (Meth A fibrosarcoma; [8]): induced regression of the Meth A tumors
- effect on Meth A tumors (Meth A fibrosarcoma; treated intraperitoneally): tumors were also eradicated
- Minimum inhibitory concentration (MIC) S. aureus ATCC 25923 ([1]; Table 1, value in parentheses): 80 µM
- Minimum inhibitory concentration (MIC) E. coli ATCC 25922 ([2]; Table 1, value in parentheses): 28 µM
- cytotoxic effect on human HL 60 cells [3]: no cytotoxic effect

Compound: H2N-FKCRRWQWRMKKLGAPSITCVRRAF-COOH (H-FKCRRWQWRMKKLGAPSITCVRRAF-OH; ends and bridges not checked) [Cyclic LFB, enzymatically cleaved fragment of bovine lactoferrin, from Morinaga, reference compound]
- tumor growth after re-inoculation of A20 cells [4]: no further growth occurred
- concentration at which Meth A cells were effectively killed ([5]; Meth A cells 1×10^4/ml, 4 h incubation (FIG. 2)): higher than 0.8 mg/ml
- Meth A cells killed ([5]; at concentrations higher than 0.8 mg/ml): more than 99%
- tumor establishment after reinoculation of Meth A cells (Meth A tumor cells): some storm of adaptive immunity is shown

Compound: CSCC[C@H](NC(=O)[C@H](CCCNC(=N)N)NC(=O)[C@H](Cc1c[nH]c2ccccc12)NC(=O)[C@H](CCC(N)=O)NC(=O)[C@H](Cc1c[nH]c2ccccc12)NC(=O)[C@H](CCCNC(=N)N)NC(=O)[C@H](CCCNC(=N)N)NC(=O)[C@H](CSCNC(C)=O)NC(=O)[C@H](CCCCN)NC(=O)[C@@H](N)Cc1ccccc1)C(=O)N[C@@H](CCCCN)C(=O)N[C@@H](CCCCN)C(=O)N[C@@H](CC(C)C)C(=O)NCC(=O)N[C@@H](C)C(=O)O [LFB 17-31, H2N-Phe-Lys-Cys-Arg-Arg-Trp-Gln-Trp-Arg-Met-Lys-Lys-Leu-Gly-Ala-COOH]
- effect on Meth A tumors (Meth A fibrosarcoma; [8]): induced regression of the Meth A tumors
- Minimum inhibitory concentration (MIC) S. aureus ATCC 25923 ([1]; Table 1, value in parentheses): 50 µM
- Minimum inhibitory concentration (MIC) E. coli ATCC 25922 ([2]; Table 1, value in parentheses): 20 µM
- cytotoxic effect on human HL 60 cells ([3]; FIG. 7, concentrations tested): no cytotoxic effect

Compound: Ad-LFB 14-31 A2,3,6,10,17,F7,R4,K11,L14-NH2 [NDDO1]
- primary effect on C26 colon carcinoma (C26 colon carcinoma; 3 animals, 0.5 mg/50 μl intra-tumorally once a day for three days): In one mouse full tumor regression was obtained
- effect of re-inoculating C26 cells (C26 colon carcinoma; re-inoculated three weeks after peptide treatment, no further treatment): A regression of the tumor after an initial growth was obtained without any further treatment

Compound: H2N-WKKWdipKKWK-COOH [L-Mod 39]
- time until the re-inoculated A20 tumor completely disappeared [4]: 10 days

Compound: H2N-KAAKKAbipKAAKAbipKKAA-COOH (H-KAAKKA[Bip]KAAKA[Bip]KKAA-OH; SMILES C[C@H](NC(=O)[C@H](C)NC(=O)[C@H](CCCCN)NC(=O)[C@H](CCCCN)NC(=O)[C@H](Cc1ccc(-c2ccccc2)cc1)NC(=O)[C@H](C)NC(=O)[C@H](CCCCN)NC(=O)[C@H](C)NC(=O)[C@H](C)NC(=O)[C@H](CCCCN)NC(=O)[C@H](Cc1ccc(-c2ccccc2)cc1)NC(=O)[C@H](C)NC(=O)[C@H](CCCCN)NC(=O)[C@H](CCCCN)NC(=O)[C@H](C)NC(=O)[C@H](C)NC(=O)[C@@H](N)CCCCN)C(=O)O) [Peptide C12]
- time until the re-inoculated A20 tumor completely disappeared [4]: 6 days

Compound: H2N-WKKWdipKKWK-COOH [Model 39]
- rejection of implanted A20 tumors in acceptors of spleen cells from cured mice [6]: able to reject implanted tumors

Compound: CC[C@H](C)[C@H](NC(=O)[C@H](CO)NC(=O)[C@@H]1CCCN1C(=O)[C@H](C)NC(=O)CNC(=O)[C@H](CC(C)C)NC(=O)[C@H](CCCCN)NC(=O)[C@H](CCCCN)NC(=O)[C@H](CCSC)NC(=O)[C@H](CCCNC(=N)N)NC(=O)[C@H](Cc1c[nH]c2ccccc12)NC(=O)[C@H](CCC(N)=O)NC(=O)[C@H](Cc1c[nH]c2ccccc12)NC(=O)[C@H](CCCNC(=N)N)NC(=O)[C@H](CCCNC(=N)N)NC(=O)[C@H](CSCNC(C)=O)NC(=O)[C@H](CCCCN)NC(=O)[C@@H](N)Cc1ccccc1)C(=O)N[C@H](C(=O)N[C@@H](CSCNC(C)=O)C(=O)N[C@H](C(=O)N[C@@H](CCCNC(=N)N)C(=O)N[C@@H](CCCNC(=N)N)C(=O)N[C@@H](C)C(=O)N[C@@H](Cc1ccccc1)C(=O)O)C(C)C)[C@@H](C)O [LFB (17-41), reference compound]
- Minimum inhibitory concentration (MIC) S. aureus ATCC 25923 [1, 9]: 30 µg/mL
- Minimum inhibitory concentration (MIC) E. coli ATCC 25922 [2, 9]: 30 µg/mL
- cytotoxic effect on human HL 60 cells ([3]; FIG. 7, concentrations tested): weak concentration dependant cytotoxic effect

Compound: H-FKWRRWWWRMKKLWA-OH [LFBW3,7,14, H2N-Phe-Lys-Trp-Arg-Arg-Trp-Trp-Trp-Arg-Met-Lys-Lys-Leu-Trp-Ala-COOH]
- solubility in aqueous solutions [7]: less soluble in aquous solutions
